Experimental findings from patent US20160045442A1, “STABLE PHARMACEUTICAL COMPOSITIONS OF MESALAMINE” (CADILA HEALTHCARE LIMITED, priority 2014, published 2016) are described below.

This data set can be described thus: Bulk density and tapped density of mesalamine powder (USP Test 616). As to conditions: mesalamine used to prepare the composition as per Example 3. The class given is physicochemical. An excerpt: Important physicochemical characteristics of powders are the density properties such as bulk and tapped density, weight variation and flow properties such as angle of repose. Bulk density is the undisturbed packing density of that substance and tapped density relates to the packing density after tapping a bed of substance until no change in the packing density is seen. Bulk density and tapped density, can be determined using compendial bulk density apparatus, such as the method given in Test 616 “Bulk Density and Tapped Density,” United States Pharmacopeia 29, United States Pharmacopeial Convention, Inc., Rockville, Md., 2005 (“USP”).

Each structure is given as a SMILES string.

As to `Nc1ccc(O)c(C(=O)O)c1` [Mesalamine, mesalamine], the bulk density was 0.483 g/mL and the tapped density turned out to be 0.694 g/mL.
